Data as given in PMC9928118, “Funneling modulatory peptide design with generative models: Discovery and characterization of disruptors of calcineurin protein-protein interactions” (PLOS Computational Biology, 2023).

System: GST-tagged Cn
Assay: PEPperPRINT peptide microarray binding assay with GST-tagged Cn
How it was run: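 Qualitative binding: peptides printed on a PEPperPRINT microarray were incubated overnight at 4 °C with 1 mg/ml GST-tagged Cn, then detected with Alexa-Fluor 647 anti-GST antibody. Log fluorescence was baseline-corrected, averaged over duplicate spots, Z-normalized and averaged across five repeats.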

[1] = GST-tagged Cn, max over the spots named in Location on chip
[2] = GST-tagged Cn, mean over the spots named in Location on chip
[3] = GST-tagged Cn, max over the spots on the chip (two locations)
[4] = GST-tagged Cn, mean over the spots on the chip (two locations)
[5] = GST-tagged Cn, max over the chip locations
[6] = GST-tagged Cn, mean over the chip locations
[7] = max over the spots listed under Location on chip
[8] = mean over the spots listed under Location on chip
[9] = GST-tagged Cn, max over the chip spots listed under Location on chip
[10] = GST-tagged Cn, mean over the chip spots listed under Location on chip
[11] = max over the chip locations listed for the peptide (two spots)
[12] = mean over the chip locations listed for the peptide (two spots)

LNLKIPTIAKADITAT [SeqRBM_4458]
Chip Fluorescence (max) [1]: 1.846 | Chip Fluorescence (mean) [2]: -0.3422

RAYINPFMQFQDGGQR [SeqRBMlowT_1515]
Chip Fluorescence (max) [1]: 1.533 | Chip Fluorescence (mean) [2]: -0.1627

TTSTNPQIRITDHEDE [Seqshuffled_9411]
Chip Fluorescence (max) [3]: 1.2864 | Chip Fluorescence (mean) [4]: -7.047

RTYINPFVTFVDGGNK [SeqRBMlowT_3664]
Chip Fluorescence (max) [5]: 0.3337 | Chip Fluorescence (mean) [6]: -0.6971

TFWTNPQYKITLEEED [SeqRBMlowT_3204]
Chip Fluorescence (max) [7]: 3.2 | Chip Fluorescence (mean) [8]: 1.112

HSKSIPKISIQSPVHH [SeqRBMlowT_863]
Chip Fluorescence (max) [5]: -0.2725 | Chip Fluorescence (mean) [6]: -0.8171

LKDEVPEVRLNIISNL [SeqRCN1_Ramazzottius_varieornatus]
Chip Fluorescence (max) [9]: 0.4089 | Chip Fluorescence (mean) [10]: -0.7319

ASVSNPEITVTSAETE [SeqRBM_9489]
Chip Fluorescence (max) [11]: 15.1807 | Chip Fluorescence (mean) [12]: 1.275

FFHHGLSCCKARQAEY [Seqrandom_9955]
Chip Fluorescence (max) [11]: 3.699 | Chip Fluorescence (mean) [12]: 0.5277

FAKHWPKLSDVSPVAH [SeqRBM_8299]
Chip Fluorescence (max) [5]: 0.2862 | Chip Fluorescence (mean) [6]: -1.095

SVDKHPRVYVATSRED [SeqRBM_4749]
Chip Fluorescence (max) [11]: 4.793 | Chip Fluorescence (mean) [12]: 0.8161

HVSSSSDITITPTQHR [SeqRBMlowT_2715]
Chip Fluorescence (max) [3]: 1.1425 | Chip Fluorescence (mean) [4]: -0.2145

LNLKIPIVLLNIISAI [SeqRBM_9387]
Chip Fluorescence (max) [1]: 1.375 | Chip Fluorescence (mean) [2]: 0.2818

KSKSIPKISIQSPVHH [SeqRBMlowT_1684]
Chip Fluorescence (max) [7]: 2.868 | Chip Fluorescence (mean) [8]: 0.2995

RNPGIALLSLRGHKAQ [SeqRBMlowT_8792]
Chip Fluorescence (max) [3]: 1.2142 | Chip Fluorescence (mean) [4]: 0.3008

HVSSSPDITITPTQHR [SeqRBMlowT_702]
Chip Fluorescence (max) [3]: 1.204 | Chip Fluorescence (mean) [4]: 0.3347

PKMAPPCINIDFAPTN [SeqRBMlowT_319]
Chip Fluorescence (max) [3]: 1.2058 | Chip Fluorescence (mean) [4]: -0.8596

TFWMNPQYMIKLEEED [SeqCAPN11_Monodelphis_domestica]
Chip Fluorescence (max) [11]: 4.262 | Chip Fluorescence (mean) [12]: 0.2921

TFWTNPQFRVKLEDPD [SeqRBMlowT_223]
Chip Fluorescence (max) [9]: 0.479 | Chip Fluorescence (mean) [10]: -1.105

KVRTALYFTWNLTERG [Seqshuffled_9698]
Chip Fluorescence (max) [3]: 1.275 | Chip Fluorescence (mean) [4]: 0.3801

FSNKASKARRMEPLSI [SeqRBM_824]
Chip Fluorescence (max) [3]: 1.106 | Chip Fluorescence (mean) [4]: -0.01462

RNYINPQAQFTYDSGA [SeqRBM_6031]
Chip Fluorescence (max) [5]: -0.2579 | Chip Fluorescence (mean) [6]: -0.9244

ATPGTFPRGDGAHKKQ [SeqRBMlowT_5886]
Chip Fluorescence (max) [11]: 4.111 | Chip Fluorescence (mean) [12]: 0.8256

KAYMCPAVSFQDGGRR [SeqRBMlowT_4017]
Chip Fluorescence (max) [1]: 1.6 | Chip Fluorescence (mean) [2]: -0.3289

RTYINPFMKFTIWGTQ [SeqRBM_6386]
Chip Fluorescence (max) [1]: 1.359 | Chip Fluorescence (mean) [2]: -0.5299

TLWTNPQYHITLPEED [SeqRBM_3002]
Chip Fluorescence (max) [7]: 3.2575 | Chip Fluorescence (mean) [8]: 0.9321

RTRRISPLFDNPNSKQ [Seqshuffled_9774]
Chip Fluorescence (max) [11]: 4.819 | Chip Fluorescence (mean) [12]: 0.7359

KAYINPSMVFIEGGRR [SeqRBM_7863]
Chip Fluorescence (max) [7]: 2.964 | Chip Fluorescence (mean) [8]: 0.9132

ADEASPRIVITPPELP [SeqRBMlowT_1222]
Chip Fluorescence (max) [11]: 3.902 | Chip Fluorescence (mean) [12]: 0.5727

HVSSSPDVTLTPTQHR [SeqRBMlowT_4550]
Chip Fluorescence (max) [9]: 0.8955 | Chip Fluorescence (mean) [10]: -0.3348

HSKLIPKLSFQSPVHH [SeqRBMlowT_814]
Chip Fluorescence (max) [5]: -0.8035 | Chip Fluorescence (mean) [6]: -1.44

TFWTNPQFKVKLEDVD [SeqRBMlowT_6885]
Chip Fluorescence (max) [1]: 1.498 | Chip Fluorescence (mean) [2]: -0.7469

TFWTNPQYKIKLEDPD [SeqRBMlowT_629]
Chip Fluorescence (max) [9]: 0.8637 | Chip Fluorescence (mean) [10]: -0.07489

RSPGTFPLELSGHKKQ [SeqRBMlowT_6356]
Chip Fluorescence (max) [3]: 1.326 | Chip Fluorescence (mean) [4]: -0.7748

ADEAIPKIVIHPPEEP [SeqRBMlowT_1972]
Chip Fluorescence (max) [7]: 3.233 | Chip Fluorescence (mean) [8]: -0.1428

ADEAIPEIVISPPELP [SeqRBMlowT_1959]
Chip Fluorescence (max) [7]: 3.309 | Chip Fluorescence (mean) [8]: 0.2863

KKMAPPAINIDFAPTN [SeqRBMlowT_341]
Chip Fluorescence (max) [1]: 1.339 | Chip Fluorescence (mean) [2]: -0.05324

TFWTNPQFKVKLEEPD [SeqRBMlowT_221]
Chip Fluorescence (max) [9]: 0.5686 | Chip Fluorescence (mean) [10]: -0.7828
